Some test systems named below: K-562 leukemia; HCT-15 colon; SK-MEL-2 melanoma; NCI-H23 lung; LOX IMVI melanoma; OVCAR-4 ovarian; SW-620 colon; SNB-19 CNS; IGROV1 ovarian.
Common to all, as to experiment: NCI-60 cell line screen, 48 h

Molecules are shown by their SMILES.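 The compound was tested at five concentrations on cells cultured in 96-well plates, with a 48-hour exposure period. Abbreviation: GI50, concentration required for 50% inhibition of growth. The concentration for full growth arrest is given as TGI.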

As for `CNCc1cc(OC)ccc1-c1ccc(OC)c(OC)c1OC`, the TGI in the assay with K-562 leukemia, in the assay on HCT-15 colon, in the assay on SK-MEL-2 melanoma, with NCI-H23 lung, with LOX IMVI melanoma and with OVCAR-4 ovarian was more than 100 µM in each case. In addition, the TGI in the assay on SW-620 colon, in the assay on SNB-19 CNS and in the assay with IGROV1 ovarian was more than 100 µM throughout.

Regarding `COC(=O)C(=O)C(C(=O)C(=O)Nc1nc2ccc(C)cc2s1)c1nc2ccc([N+](=O)[O-])cc2[nH]c1=O` (configuration not stated), the TGI in the assay with K-562 leukemia, with HCT-15 colon, in the assay on SK-MEL-2 melanoma, in the assay with NCI-H23 lung, in the assay on LOX IMVI melanoma and in the assay on SW-620 colon was more than 100 µM each time. Moreover, the TGI with SNB-19 CNS and in the assay on IGROV1 ovarian was more than 100 µM each time.

Regarding `CC(/C(=N\Nc1ccccc1)c1ccc(O)cc1)C1C(=O)Oc2ccccc21` (configuration not stated), the TGI with K-562 leukemia, in the assay with HCT-15 colon, with SK-MEL-2 melanoma, with LOX IMVI melanoma, in the assay on OVCAR-4 ovarian and with SW-620 colon was more than 100 µM in each case. For the same compound, the TGI with SNB-19 CNS and in the assay on IGROV1 ovarian was more than 100 µM each time.

For the compound `CCN1C(=O)N(CC)C2Nn3c(s/c(=C\c4ccccc4Br)c3=O)=NC21` (configuration not stated), the GI50 is 0.515 µM in the assay on K-562 leukemia; 1.48 µM in the assay on HCT-15 colon; 3.55 µM in the assay on SK-MEL-2 melanoma; 2.7 µM with NCI-H23 lung; 2.43 µM with LOX IMVI melanoma; 2.29 µM in the assay with OVCAR-4 ovarian. For the same compound, the results for the GI50 in the assay on SW-620 colon, with SNB-19 CNS and in the assay with IGROV1 ovarian were 1.27 µM, 3.18 µM and 2.77 µM, respectively. Also, the TGI is more than 100 µM with K-562 leukemia; more than 100 µM with HCT-15 colon; 25.6 µM in the assay with SK-MEL-2 melanoma; more than 100 µM in the assay with NCI-H23 lung; 30.6 µM in the assay on LOX IMVI melanoma; more than 100 µM in the assay with OVCAR-4 ovarian. The TGI with SW-620 colon, with SNB-19 CNS and in the assay with IGROV1 ovarian was more than 100 µM each time.

`CCOC(=O)C1C2CCC(C2)C1(CCl)C(=O)OCC` (configuration not stated): the TGI in the assay on K-562 leukemia, in the assay with HCT-15 colon, in the assay with NCI-H23 lung, in the assay with LOX IMVI melanoma, in the assay on OVCAR-4 ovarian and in the assay on SW-620 colon was more than 100 µM throughout. The TGI in the assay with SNB-19 CNS and in the assay on IGROV1 ovarian was more than 100 µM throughout.

`NNC(=O)CNC(=O)c1ccc(Cl)cc1Cl`: the TGI in the assay with K-562 leukemia was more than 100 µM; with HCT-15 colon, more than 100 µM; with NCI-H23 lung it was more than 100 µM; in the assay on OVCAR-4 ovarian, more than 100 µM; with SW-620 colon, 33.3 µM; with SNB-19 CNS it was more than 100 µM. The same compound had a TGI with IGROV1 ovarian of more than 100 µM.

Consider `COC(=O)C(CC(C)C)NC(=O)NC12CC3CC(CC(F)(C3)C1)C2` (configuration not stated), for which the TGI in the assay on K-562 leukemia, in the assay on SK-MEL-2 melanoma, in the assay with NCI-H23 lung, with LOX IMVI melanoma, in the assay with SW-620 colon and in the assay with SNB-19 CNS was more than 100 µM each time. For the same compound, the TGI in the assay with IGROV1 ovarian is more than 100 µM.

As to `CCCCCCCCCCCCCC(=O)OCC1OC(n2cc(F)c(=O)[nH]c2=O)C(NC(=O)OCc2ccccc2)C(OC(=O)CCCCCCCCCCCCC)C1O` (configuration not stated), the TGI in the assay on K-562 leukemia, in the assay with HCT-15 colon, with SK-MEL-2 melanoma, with NCI-H23 lung, in the assay with LOX IMVI melanoma and in the assay on OVCAR-4 ovarian was more than 100 µM in each case. The TGI in the assay with SW-620 colon, in the assay on SNB-19 CNS and in the assay on IGROV1 ovarian was more than 100 µM each time.

As to `Cc1cccc2c1N(C(=O)/C=C\C(=O)O)C(c1c(C)[nH]c3ccccc13)C2` (configuration not stated), the TGI in the assay on K-562 leukemia was more than 100 µM; in the assay on SK-MEL-2 melanoma, 36 µM; with NCI-H23 lung, more than 100 µM; in the assay with OVCAR-4 ovarian, more than 100 µM; with SW-620 colon it was 79.3 µM; in the assay with SNB-19 CNS, more than 100 µM. The same compound came in with a TGI with IGROV1 ovarian of more than 10 µM.

As to `CC[P+](C)(C)c1ccccc1`, the TGI in the assay on K-562 leukemia, with HCT-15 colon, in the assay on SK-MEL-2 melanoma, in the assay on NCI-H23 lung, in the assay on LOX IMVI melanoma and in the assay with OVCAR-4 ovarian was more than 100 µM in each case. Further, the TGI in the assay on SW-620 colon, in the assay on SNB-19 CNS and with IGROV1 ovarian was more than 100 µM throughout.

For `COC(=O)/C(=N\Nc1nc(=S)[nH]n1N)C(C#N)c1ccccc1` (configuration not stated), the TGI in the assay on K-562 leukemia, in the assay with HCT-15 colon, with SK-MEL-2 melanoma, in the assay on NCI-H23 lung, with LOX IMVI melanoma and in the assay on OVCAR-4 ovarian was more than 100 µM in each case. Also, the TGI with SW-620 colon, in the assay on SNB-19 CNS and in the assay on IGROV1 ovarian was more than 100 µM each time.

`N/N=C(\C(=O)Nc1ccc(Cl)cc1Cl)C(c1cnc2ccccc2n1)[N+](=O)[O-]` (configuration not stated): the TGI with K-562 leukemia, in the assay on HCT-15 colon, in the assay with SK-MEL-2 melanoma, in the assay on NCI-H23 lung, in the assay with LOX IMVI melanoma and in the assay with OVCAR-4 ovarian was more than 100 µM throughout. For the same compound, the TGI in the assay on SW-620 colon and in the assay on IGROV1 ovarian was more than 100 µM throughout.

Regarding `CC1=NOC(=O)/C1=C/c1cccc2ccccc12`, the TGI in the assay with K-562 leukemia, in the assay on HCT-15 colon, with SK-MEL-2 melanoma, with NCI-H23 lung, in the assay with LOX IMVI melanoma and in the assay on OVCAR-4 ovarian was more than 100 µM in each case. Further, the TGI in the assay with SW-620 colon, in the assay on SNB-19 CNS and with IGROV1 ovarian was more than 100 µM throughout.

Consider `CC(=O)Nc1cc(N(CCOS(C)(=O)=O)CCOS(C)(=O)=O)ccc1N=O`, for which the TGI in the assay on K-562 leukemia, in the assay on HCT-15 colon, in the assay on SK-MEL-2 melanoma, in the assay with NCI-H23 lung, in the assay with OVCAR-4 ovarian and with SW-620 colon was more than 100 µM in each case. Also, the TGI in the assay on SNB-19 CNS and with IGROV1 ovarian was more than 100 µM each time.

Turning to `O=C(O)C[C@H]1CCCCC12CCOC2=O` (some centres not stated), the TGI with K-562 leukemia, with SK-MEL-2 melanoma, in the assay with NCI-H23 lung, in the assay on LOX IMVI melanoma, in the assay on OVCAR-4 ovarian and with SW-620 colon was more than 100 µM in each case. Besides, the TGI in the assay on SNB-19 CNS and in the assay on IGROV1 ovarian was more than 100 µM in each case.
